# According to patent publication US8207177B2, “Inhibitors of E1 activating enzymes” (Millennium Pharmaceuticals, Inc., priority 2006, dated 2012):
# pIC50: −log10 of the molar value.
# Molecular target: T1, recombinant human NAE enzyme (Homo sapiens, UniProt Q8TBC4)
# T1 construct: His (N); made in house; host or cells: Sf9 insect cells (baculovirus, Bac-to-Bac), purified on Ni-NTA
# T1 sequence (Q8TBC4 1-463): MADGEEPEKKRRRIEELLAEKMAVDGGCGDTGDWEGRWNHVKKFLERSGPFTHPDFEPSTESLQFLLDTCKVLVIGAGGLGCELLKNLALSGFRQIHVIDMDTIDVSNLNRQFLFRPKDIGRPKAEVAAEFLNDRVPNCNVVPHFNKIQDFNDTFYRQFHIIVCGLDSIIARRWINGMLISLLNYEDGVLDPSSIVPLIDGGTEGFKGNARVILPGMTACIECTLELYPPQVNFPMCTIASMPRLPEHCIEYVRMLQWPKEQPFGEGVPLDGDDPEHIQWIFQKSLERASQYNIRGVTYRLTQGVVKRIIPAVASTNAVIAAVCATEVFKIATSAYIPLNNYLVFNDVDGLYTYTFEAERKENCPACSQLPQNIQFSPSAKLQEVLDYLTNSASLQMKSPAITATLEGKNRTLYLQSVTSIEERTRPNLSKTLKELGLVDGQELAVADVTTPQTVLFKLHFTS
# T1 sequence (Q13564 1-534 partner): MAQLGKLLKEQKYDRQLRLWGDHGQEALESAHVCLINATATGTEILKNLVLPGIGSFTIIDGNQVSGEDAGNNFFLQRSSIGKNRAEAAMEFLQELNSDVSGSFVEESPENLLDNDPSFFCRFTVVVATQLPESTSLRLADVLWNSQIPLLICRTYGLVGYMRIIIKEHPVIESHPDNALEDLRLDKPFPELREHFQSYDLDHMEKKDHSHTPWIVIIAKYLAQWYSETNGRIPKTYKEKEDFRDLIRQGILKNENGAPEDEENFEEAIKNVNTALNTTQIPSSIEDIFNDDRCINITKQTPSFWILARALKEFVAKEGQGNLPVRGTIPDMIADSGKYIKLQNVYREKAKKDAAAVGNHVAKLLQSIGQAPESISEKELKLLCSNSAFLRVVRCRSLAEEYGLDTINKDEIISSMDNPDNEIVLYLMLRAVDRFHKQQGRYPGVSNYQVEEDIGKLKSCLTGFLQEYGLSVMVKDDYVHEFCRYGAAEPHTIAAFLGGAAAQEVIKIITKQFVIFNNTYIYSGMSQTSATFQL
# Test: Nedd8-Activating Enzyme (NAE) HTRF Assay
# Assay type: biochemical
# Conditions: threshold statement: less than or equal to 100 nM; 20 μM ATP, 90 minutes at 24° C.
# Experimental: Following manufacturer instructions, baculoviruses were generated with the Bac-to-Bac Expression System (Invitrogen) for the following proteins: untagged NAEα (APPBP1; NP_003896.1), N-terminally His-tagged NAEβ (UBE1C; NP_003959.3), untagged SAEα (SAE1; NP_005491.1), N-terminally His-tagged SAEβ (UBA2; NP_005490.1), N-terminally His-tagged murine UAE (UBE1X; NP_033483). NAEα/His-NAEβ and SAEα/His-SAEβ complexes were generated by co-infection of Sf9 cells, which were harvested after 48 hours. His-mUAE was generated by single infection of Sf9 cells and harvested after 72 hours. Expressed proteins were purified by affinity chromatography (Ni—NTA agarose, Qiagen) using standard buffers. Ubc12 (UBE2M; NP_003960.1), Ubc9 (UBE2I; NP_003336.1), Ubc2 (UBE2A; NP_003327.2) were subcloned into pGEX (Pharmacia) and expressed as N-terminally GST tagged fusion proteins in E. coli. Expressed proteins were purified by conventional affinity chromatography using standard buffers. Nedd8 (NP_006147), Sumo-1 (NP_003343) and Ubiquitin (with optimized codons) were subcloned into pFLAG-2 (Sigma) and expressed as N-terminally Flag tagged fusion proteins in E. coli. Expressed proteins were purified by conventional chromatography using standard buffers. Nedd8-Activating Enzyme (NAE) HTRF Assay. The NAE enzymatic reaction totaled 50 μL and contained 50 mM HEPES (pH 7.5), 0.05% BSA, 5 mM MgCl2, 20 μM ATP, 250 μM GSH, 0.01 μM Ubc12-GST, 0.075 μM Nedd8-Flag and 0.28 nM recombinant human NAE enzyme. The enzymatic reaction mixture, with and without compound inhibitor, was incubated at 24° C. for 90 minutes in a 384-well plate before termination with 25 μL of Stop/Detection buffer (0.1M HEPES pH 7.5, 0.05% Tween20, 20 mM EDTA, 410 mM KF, 0.53 nM Europium-Cryptate labeled monoclonal anti-FLAG M2 antibody (CisBio International) and 8.125 μg/mL PHYCOLINK goat anti-GST allophycocyanin (XL-APC) antibody (Prozyme)). After incubation for 3 hours at 24° C., quantification of the FRET was performed on the Analyst™ HT 96.384 (Molecular Devices).
row,Compound,pIC50
1,"NS(=O)(=O)OC1CC(n2ccc3c(N[C@H]4CCc5ccccc54)ncnc32)CC1O (stereo in doubt) [Compound I-78, (1R,2S,4S)-4-{4-[(1S)-2,3-dihydro-1H-inden-1-ylamino]-7H-pyrrolo[2,3-d]pyrimidin-7-yl}-2-hydroxycyclopentyl sulfamate]",≥ 7.00
2,"CO[C@H]1Cc2ccccc2[C@H]1Nc1ncnc2c1c(F)cn2[C@@H]1C[C@@H](COS(N)(=O)=O)[C@@H](O)C1 [Compound I-69, [(1S,2S,4R)-4-(5-fluoro-4-{[(1R,2S)-2-methoxy-2,3-dihydro-1H-inden-1-yl]amino}-7H-pyrrolo[2,3-d]pyrimidin-7-yl)-2-hydroxycyclopentyl]methyl sulfamate]",≥ 7.00
3,"CC1(C)C[C@H](Nc2ncnc3c2ccn3[C@@H]2C[C@@H](COS(N)(=O)=O)[C@@H](O)C2)c2ccc(Cl)cc21 [Compound I-67, [(1S,2S,4R)-4-(4-{[(1S)-5-chloro-3,3-dimethyl-2,3-dihydro-1H-inden-1-yl]amino)-7H-pyrrolo[2,3-d]pyrimidin-7-yl)-2-hydroxycyclopentyl]methyl sulfamate]",≥ 7.00
4,"NS(=O)(=O)OC[C@@H]1C[C@@H](n2ccc3c(N[C@H]4CCc5c(F)ccc(F)c54)ncnc32)C[C@@H]1O [Compound I-62, [(1S,2S,4R)-4-(4-{[(1S)-4,7-difluoro-2,3-dihydro-1H-inden-1-yl]amino}-7H-pyrrolo[2,3-d]pyrimidin-7-yl)-2-hydroxycyclopentyl]methyl sulfamate]",≥ 7.00
5,"NS(=O)(=O)OCC[C@@H]1C[C@@H](n2ccc3c(N[C@H]4CCc5ccccc54)ncnc32)C[C@@H]1O [Compound I-76, 2-((1S,2S,4R)-4-{4-[(1S)-2,3-dihydro-1H-inden-1-ylamino]-7H-pyrrolo[2,3-d]pyrimidin-7-yl}-2-hydroxycyclopentyl)ethyl sulfamate]",≥ 7.00
6,"NS(=O)(=O)OC[C@@H]1C[C@@H](n2ccc3c(NCc4ccc5c(c4)OCO5)ncnc32)C[C@@H]1O [Compound I-26, ((1S,2S,4R)-4-{4-[(1,3-benzodioxol-5-ylmethyl)amino]-7H-pyrrolo[2,3-d]-pyrimidin-7-yl}-2-hydroxycyclopentyl)methyl sulfamate]",≥ 7.00
7,"C[C@@H](Nc1ncnc2c1ccn2[C@@H]1C[C@@H](COS(N)(=O)=O)[C@@H](O)C1)c1ccccc1 [Compound I-7, [(1S,2S,4R)-2-hydroxy-4-(4-{[(1R)-1-phenylethyl]amino}-7H-pyrrolo[2,3-d]-pyrimidin-7-yl)cyclopentyl]methyl sulfamate]",≥ 7.00
8,"CCO[C@H]1Cc2ccccc2[C@H]1Nc1ncnc2c1ccn2[C@@H]1C[C@@H](COS(N)(=O)=O)[C@@H](O)C1 [Compound I-70, [(1S,2S,4R)-4-(4-{[(1R,2S)-2-ethoxy-2,3-dihydro-1H-inden-1-yl]amino}-7H-pyrrolo[2,3-d]pyrimidin-7-yl)-2-hydroxycyclopentyl]methyl sulfamate]",≥ 7.00
9,"Cc1ncnc2c1ccn2[C@@H]1C[C@@H](COS(N)(=O)=O)[C@@H](O)C1 [Compound I-46, [(1S,2S,4R)-2-hydroxy-4-(4-methyl-7H-pyrrolo[2,3-d]pyrimidin-7-yl)cyclopentyl]methyl sulfamate]",≥ 7.00
10,"CO[C@H]1CCc2ccccc2[C@H]1Nc1ncnc2c1ccn2[C@@H]1C[C@@H](COS(N)(=O)=O)[C@@H](O)C1 [Compound I-85, [(1S,2S,4R)-2-hydroxy-4-(4-{[(1R,2S)-2-methoxy-1,2,3,4-tetrahydronaphthalen-1-yl]amino}-7H-pyrrolo[2,3-d]pyrimidin-7-yl)cyclopentyl]methyl sulfamate]",≥ 7.00
11,"CC1(C)C[C@@H](Nc2ncnc3c2ccn3[C@@H]2C[C@@H](COS(N)(=O)=O)[C@@H](O)C2)c2ccccc21 (single isomer, unassigned) [Compound I-21]",≥ 7.00
12,"CC(C)O[C@H]1Cc2ccccc2[C@H]1Nc1ncnc2c1ccn2[C@@H]1C[C@@H](COS(N)(=O)=O)[C@@H](O)C1 [Compound I-54, [(1S,2S,4R)-2-hydroxy-4-(4-{[(1R,2S)-2-isopropoxy-2,3-dihydro-1H-inden-1-yl]-amino}-7H-pyrrolo[2,3-d]pyrimidin-7-yl)cyclopentyl]methyl sulfamate]",≥ 7.00
13,"NS(=O)(=O)OC[C@@H]1C[C@@H](n2ccc3c(NCc4ccc(Cl)cc4Cl)ncnc32)C[C@@H]1O [Compound I-19, ((1S,2S,4R)-4-{4-[(2,4-dichlorobenzyl)amino]-7H-pyrrolo[2,3-d]pyrimidin-7-yl}-2-hydroxycyclopentyl)methyl sulfamate]",≥ 7.00
14,"NS(=O)(=O)CC[C@@H]1C[C@@H](n2ccc3c(N[C@H]4CCc5ccccc54)ncnc32)C[C@@H]1O [Compound I-59, 2-((1S,2S,4R)-4-{4-[(1S)-2,3-dihydro-1H-inden-1-ylamino]-7H-pyrrolo[2,3-d]-pyrimidin-7-yl}-2-hydroxycyclopentyl)ethanesulfonamide]",≥ 7.00
15,"NS(=O)(=O)OC[C@@H]1C[C@@H](n2ccc3c(NCc4ccc(Cl)cc4)ncnc32)[C@H](O)[C@@H]1O [Compound I-22, ((1S,2R,3S,4R)-4-{4-[(4-chlorobenzyl)amino]-7H-pyrrolo[2,3-d]pyrimidin-7-yl)-2,3-dihydroxycyclopentyl)methyl sulfamate]",≥ 7.00
16,"CC(C)(Cc1ncnc2c1ccn2[C@@H]1C[C@@H](COS(N)(=O)=O)[C@@H](O)C1)c1ccccc1 [Compound I-50, {(1S,2S,4R)-2-hydroxy-4-[4-(2-methyl-2-phenylpropyl)-7H-pyrrolo[2,3-d]-pyrimidin-7-yl]cyclopentyl}methyl sulfamate]",≥ 7.00
17,"C[C@]1(O)C[C@H](n2ccc3c(N[C@H]4CCc5ccccc54)ncnc32)C[C@H]1COS(N)(=O)=O [Compound I-30, ((1S,2S,4R)-4-{4-[(1S)-2,3-dihydro-1H-inden-1-ylamino]-7H-pyrrolo[2,3-d]-pyrimidin-7-yl}-2-hydroxy-2-methylcyclopentyl)methyl sulfamate]",≥ 7.00
18,"NS(=O)(=O)OC[C@@H]1C[C@@H](n2ccc3c(NCC4CCCCC4)ncnc32)C[C@@H]1O [Compound I-29, ((1S,2S,4R)-4-{4-[(cyclohexylmethyl)amino]-7H-pyrrolo[2,3-d]pyrimidin-7-yl)-2-hydroxycyclopentyl)methyl sulfamate]",≥ 7.00
19,"C[C@H](Nc1ncnc2c1ccn2[C@@H]1C[C@@H](COS(N)(=O)=O)[C@@H](O)C1)c1ccccc1 [Compound I-4, [(1S,2S,4R)-2-hydroxy-4-(4-{[(1S)-1-phenylethyl]amino}-7H-pyrrolo[2,3-d]-pyrimidin-7-yl)cyclopentyl]methyl sulfamate]",≥ 7.00
20,"NS(=O)(=O)OC[C@@H]1C[C@@H](n2ccc3c(NCC4CC4)ncnc32)C[C@@H]1O [Compound I-25, ((1S,2S,4R)-4-{4-[(cyclopropylmethyl)amino]-7H-pyrrolo[2,3-d]pyrimidin-7-yl}-2-hydroxycyclopentyl)methyl sulfamate]",≥ 7.00
